This is an account of results in US20110053873A1, “HSP90 INHIBITORS” (TAKEDA PHARMACEUTICAL COMPANY LIMITED, priority 2008, published 2011).

The target of the first assay is T1, HSP90α (Homo sapiens, UniProt P07900, I104V).
T1 construct: made in house; host or cells: E. coli (BL21)
Kind of assay: Enzyme binding (competition fluorescence polarization) assay with TSD-FP probe. To be noted: method of Example A-1; incubation time not stated; read-out: Binding Affinity IC50. The procedure: The reaction can be followed kinetically using fluorescence (excitation λ=485 nm; emission λ=538 nm). The binding affinity of the test compound to HSP90 is determined by the changes in the polarized fluorescence; the intensity of the polarized fluorescence is proportional to the fraction of bound probe. A novel small molecule fluorescence probe, (S,E)-5-(2-(2-amino-7-(4-fluoro-2-(6-methoxypyridin-2-yl)phenyl)-4-methyl-7,8-dihydroquinazolin-5(6H)-ylideneaminooxy)ethylcarbamoyl)-2-(6-hydroxy-3-oxo-3H-xanthene-9-yl)benzoic acid (TSD-FP probe) was specifically developed for the assay. Inhibition constants (IC50) may be calculated by non-linear curve fitting of the compound concentrations and fluorescence intensities to the standard IC50 equation.
1. Enzyme Binding (Fluorescence Polarization) Assay for HSP90 Inhibitors.
a. Preparation of HSP90c Protein
This example describes cloning, expression and purification of a protein comprising the N-terminal domain of HSP90α. It should be noted that a variety of other expression systems and hosts are also suitable for the expression of such protein, as would be readily appreciated by one of skill in the art.
The sequence of human wild-type HSP90α is well known in the art; see, Chen B. et al. Genomics 2005 86:627-637. The gene encoding HSP90α can be isolated from RNA, cDNA or cDNA libraries. In this case, the gene encoding residues 9-236 of image clone 5270926 of HSP90α (ATCC) was isolated. This portion of the gene encoding a section of human HSP90α that includes the N-terminal nucleotide binding domain of human HSP90 was cloned into pET28a vector (Novagen). The DNA sequence of the vector is shown in SEQ ID NO: 1. Expression from this vector produced a protein consisting of the recombinant N-terminal nucleotide binding domain of HSP90α with a cleavable 6×-histidine tag and a cleavage site at the N-terminus. The amino acid sequence of this recombinant protein is shown in SEQ ID NO: 2.
Recombinant human N-terminal truncated His6-HSP90α was expressed in E. coli (BL21) cells with IPTG induction. Cell paste from 24×60 mL tubes (grown in a multi-tube airlift fermentor) was lysed using an automated sample lyser. Briefly, the pellet in each tube was suspended in 21 mL of lysis buffer consisting of 50 mM Tris pH 7.9, 50 mM NaCl, 1 mM MgCl2, 0.6 g/L Lysozyme (Sigma), 100 μL/L Benzonase (Novagen). […] After incubation, 5 M NaCl was added to bring the final salt concentration to 400 mM. The tubes were sonicated for 50 seconds and then centrifuged at 3400 rpm for 50 min. The supernatants were pooled and 4 ml of ProBond Ni resin (Invitrogen) was added. After at least 30 minutes, the resin was spun down, washed with 25 mM Tris pH 7.6, 400 mM NaCl, 20 mM imidazole, poured into a column and washed with 10 column volumes of the same buffer. The protein was eluted from the column using 3 column volumes of 25 mM Tris pH 7.6, 400 mM NaCl, 400 mM imidazole. The eluate was loaded onto a Supedex 200 column (GE Healthcare) equilibrated with 25 mM Tris pH 7.6, 250 mM NaCl, 0.25 mM TCEP, 1 mM EDTA and peak fractions were pooled and concentrated to ˜6 mg/mL using 10 kDA MWCO centrifugal concentrators (Millipore). Aliquots were flash frozen in liquid nitrogen and stored at −80° C. All purification was done at 4° C.
b. Preparation of the Fluorescence Polarization Probe.
A fluorescein labeled small molecule was designed and synthesized as a probe (TSD-FP probe) for the determination of the binding affinity of the test compound to HSP90 proteins. The synthesis of the small molecule, (S,E)-2-amino-7-(4-fluoro-2-(6-methoxypyridin-2-yl)phenyl)-4-methyl-7,8-dihydroquinazolin-5(6H)-one O-2-aminoethyl oxime (Compound 24) was described in Examples 24 and 25 above. The TSD-FP probe was prepared according to the following procedure:
c. Assaying the In Vitro Enzymatic Activity of HSP90 Inhibitors.
The inhibitory effect of the compounds of the invention against HSP90α was determined by fluorescence polarization assay.
Background: In fluorescence polarisation assays a small probe gives low polarisation when free and higher when bound to something large.
With `COc1cccc(-c2cc(F)ccc2[C@H]2Cc3nc(N)nc(C)c3C(NOCCCO)=N2)n1` [Compound 78, (R,Z)-2-amino-7-(4-fluoro-2-(6-methoxypyridin-2-yl)phenyl)-4-methyl-7,8-dihydropyrido[4,3-d]pyrimidin-5(6H)-one O-3-hydroxypropyl oxime], the IC50 (as a rule, the concentration that inhibits the measured activity by half) is 4 nM. Still for that read-out and setting: the figure for `COc1cccc(-c2cc(F)ccc2[C@H]2Cc3nc(N)nc(C)c3/C(=N/O[C@@H](CCO)C(=O)N(C)C)N2)n1` [Compound 93, (S)-2-((Z)-((R)-2-amino-7-(4-fluoro-2-(6-methoxypyridin-2-yl)phenyl)-4-methyl-7,8-dihydropyrido[4,3-d]pyrimidin-5(6H)-ylidene)aminooxy)-4-hydroxy-N,N-dimethylbutanamide] is 8 nM; for `COc1cccc(-c2cc(F)ccc2[C@H]2Cc3nc(N)nc(C)c3/C(=N/OC[C@H](O)CO)N2)n1` [Compound 33, (R,Z)-2-Amino-7-(4-fluoro-2-(6-methoxypyridin-2-yl)phenyl)-4-methyl-7,8-dihydropyrido[4,3-d]pyrimidin-5(6H)-one O—(R)-2,3-dihydroxypropyl oxime] it is 4 nM; for `COc1cccc(-c2cc(F)ccc2[C@H]2Cc3nc(N)nc(C)c3C(NOCC3C[C@@H](O)[C@@H](O)C3)=N2)n1` (stereo partly drawn) [Compound 59, (7R,Z)-2-amino-7-(4-fluoro-2-(6-methoxypyridin-2-yl)phenyl)-4-methyl-7,8-dihydropyrido[4,3-d]pyrimidin-5(6H)-one O-((3R,4S)-3,4-dihydroxycyclopentyl)methyl oxime] it is 8 nM. Same read-out and setting: to `COc1cccc(-c2cc(F)ccc2[C@H]2Cc3nc(N)nc(C)c3C(NOCC(=O)N(C)C[C@H](O)CO)=N2)n1` [Compound 96, 2-((Z)-((R)-2-amino-7-(4-fluoro-2-(6-methoxypyridin-2-yl)phenyl)-4-methyl-7,8-dihydropyrido[4,3-d]pyrimidin-5(6H)-ylidene)aminooxy)-N—((S)-2,3-dihydroxypropyl)-N-methylacetamide] belongs 13 nM; to `COc1cccc(-c2cc(F)ccc2[C@H]2Cc3nc(N)nc(C)c3/C(=N/OCCCCO)N2)n1` [Compound 79, (R,Z)-2-amino-7-(4-fluoro-2-(6-methoxypyridin-2-yl)phenyl)-4-methyl-7,8-dihydropyrido[4,3-d]pyrimidin-5(6H)-one O-4-hydroxybutyl oxime], 6 nM; to `COc1cccc(-c2cc(F)ccc2[C@H]2Cc3nc(N)nc(C)c3C(NOCC(=O)N(C)C)=N2)n1` [Compound 83, (R,Z)-2-(2-amino-7-(4-fluoro-2-(6-methoxypyridin-2-yl)phenyl)-4-methyl-7,8-dihydropyrido[4,3-d]pyrimidin-5(6H)-ylideneaminooxy)-N,N-dimethylacetamide], 8 nM. Take `COc1cccc(-c2cc(F)ccc2[C@H]2Cc3nc(N)nc(C)c3C(NOC3C[C@@H](O)[C@@H](O)C3)=N2)n1` (stereo partly drawn) [Compound 58, (7R,Z)-2-amino-7-(4-fluoro-2-(6-methoxypyridin-2-yl)phenyl)-4-methyl-7,8-dihydropyrido[4,3-d]pyrimidin-5(6H)-one O-(3R,4S)-3,4-dihydroxycyclopentyl oxime]: the IC50 amounted to 5 nM.

Regarding `COc1cccc(-c2cc(F)ccc2[C@H]2Cc3nc(N)nc(C)c3/C(=N/OCC(=O)N(C)CCO)N2)n1` [Compound 99, (R,Z)-2-(2-amino-7-(4-fluoro-2-(6-methoxypyridin-2-yl)phenyl)-4-methyl-7,8-dihydropyrido[4,3-d]pyrimidin-5(6H)-ylideneaminooxy)-N-(2-hydroxyethyl)-N-methylacetamide], the IC50 was 8 nM. The same measure, in the same setting: the figure for `COc1cccc(-c2cc(F)ccc2[C@H]2Cc3nc(N)nc(C)c3C(NOCC(CO)CO)=N2)n1` [Compound 35, (R,Z)-2-Amino-7-(4-fluoro-2-(6-methoxypyridin-2-yl)phenyl)-4-methyl-7,8-dihydropyrido[4,3-d]pyrimidin-5(6H)-one O-3-hydroxy-2-(hydroxymethyl)propyl oxime] is 13 nM. With `COc1cccc(-c2cc(F)ccc2[C@H]2Cc3nc(N)nc(C)c3/C(=N/O)N2)n1` [Compound 61, (R,Z)-2-amino-7-(4-fluoro-2-(6-methoxypyridin-2-yl)phenyl)-4-methyl-7,8-dihydropyrido[4,3-d]pyrimidin-5(6H)-one oxime], the IC50 amounted to 3 nM. Same read-out and setting: to `COc1cccc(-c2cc(F)ccc2[C@H]2Cc3nc(N)nc(C)c3/C(=N/OCC(=O)N3CC[C@@H](F)C3)N2)n1` [Compound 85, 2-((Z)-((R)-2-amino-7-(4-fluoro-2-(6-methoxypyridin-2-yl)phenyl)-4-methyl-7,8-dihydropyrido[4,3-d]pyrimidin-5(6H)-ylidene)aminooxy)-1-((R)-3-fluoropyrrolidin-1-yl)ethanone] belongs 4 nM. On the same count and under the same terms, the figure for `COc1cccc(-c2cc(F)ccc2[C@H]2Cc3nc(N)nc(C)c3C(NOCC3CCC(O)CC3)=N2)n1` (stereo partly drawn) [Compound 65, (R,Z)-2-amino-7-(4-fluoro-2-(6-methoxypyridin-2-yl)phenyl)-4-methyl-7,8-dihydropyrido[4,3-d]pyrimidin-5(6H)-one O-((1s,4S)-4-hydroxycyclohexyl)methyl oxime] is 10 nM. On the same count and under the same terms, to `COc1cccc(-c2cc(F)ccc2[C@H]2Cc3nc(N)nc(C)c3/C(=N/OCC[C@H](O)CO)N2)n1` [Compound 37, (R,Z)-2-amino-7-(4-fluoro-2-(6-methoxypyridin-2-yl)phenyl)-4-methyl-7,8-dihydropyrido[4,3-d]pyrimidin-5(6H)-one O—(S)-3,4-dihydroxybutyl oxime] belongs 6 nM.

A further assay relates to cells.
Test: not given
To be noted: cited from earlier work.
As to `C#CCCCn1c(Cc2cc(OC)c(OC)c(OC)c2Cl)nc2c(N)nc(F)nc21` [PU24FCl], the “concentration range of biological effects on cells” value is recorded as 2-6 μM.

The next assay deals with HSP90.
Test: not given
The settings on record: transformed cells vs normal tissues; cited from earlier work.
Take `C#CCCCn1c(Cc2cc(OC)c(OC)c(OC)c2Cl)nc2c(N)nc(F)nc21` [PU24FCl]: the “higher affinity for HSP90 from transformed cells compared to that from normal tissues” value is 10-50 times.
